EP1585727B1, “INDOLES USEFUL IN THE TREATMENT OF ANDROGEN-RECEPTOR RELATED DISEASES” (priority 2002, dated 2004)

Molecular target: T1, human androgen receptor (Homo sapiens, UniProt P10275)
T1 construct: expressed in transfected cells; host or cells: Chinese hamster ovary (CHO) cells, cell line CHO-AR-pMMTV-LUC 1G12-A5-CA
T1 sequence (P10275 1-920): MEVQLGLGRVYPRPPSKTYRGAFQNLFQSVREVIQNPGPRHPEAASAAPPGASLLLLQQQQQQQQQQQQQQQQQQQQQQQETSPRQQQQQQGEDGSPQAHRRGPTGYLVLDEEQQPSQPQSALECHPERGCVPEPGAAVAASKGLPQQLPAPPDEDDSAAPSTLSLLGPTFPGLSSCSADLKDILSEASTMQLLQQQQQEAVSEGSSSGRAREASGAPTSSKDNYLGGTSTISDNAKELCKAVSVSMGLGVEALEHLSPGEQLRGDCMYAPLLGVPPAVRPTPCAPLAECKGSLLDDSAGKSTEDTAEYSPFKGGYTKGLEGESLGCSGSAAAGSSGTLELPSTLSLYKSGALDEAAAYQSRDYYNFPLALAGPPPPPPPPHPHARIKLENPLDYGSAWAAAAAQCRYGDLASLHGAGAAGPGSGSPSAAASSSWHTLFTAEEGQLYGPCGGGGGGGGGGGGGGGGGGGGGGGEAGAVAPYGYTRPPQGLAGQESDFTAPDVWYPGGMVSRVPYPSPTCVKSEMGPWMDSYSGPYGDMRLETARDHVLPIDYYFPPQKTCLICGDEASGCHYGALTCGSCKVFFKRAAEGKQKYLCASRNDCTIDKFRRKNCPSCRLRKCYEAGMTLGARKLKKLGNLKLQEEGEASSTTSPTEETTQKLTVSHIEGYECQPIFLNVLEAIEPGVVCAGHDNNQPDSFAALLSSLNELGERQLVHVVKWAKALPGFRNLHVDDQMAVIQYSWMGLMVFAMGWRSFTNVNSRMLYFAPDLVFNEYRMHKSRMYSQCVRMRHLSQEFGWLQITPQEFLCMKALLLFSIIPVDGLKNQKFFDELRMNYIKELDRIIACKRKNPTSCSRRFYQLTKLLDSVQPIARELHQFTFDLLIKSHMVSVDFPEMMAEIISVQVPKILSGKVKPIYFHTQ
Test: Androgen receptor transactivation assay, androgenic activity in the presence of 0.1 µmol/l onapristone (CHO-AR-pMMTV-LUC cells; Table 5)
Format: cell-based
Conditions: for ago efficacy: maximal intrinsic activity in the presence of 100 nM DHT set at 1.00; for ago potency: potency expressed as percentage of DHT activity
Description: The androgenic activity (EC50, potency, and efficacy) of the compounds in Table 5 was determined in an in vitro bioassay of Chinese hamster ovary (CHO) cells stably transfected with the human androgen receptor expression plasmid and a reporter plasmid in which the MMTV promotor is linked to the luciferase reporter gene. The cell line CHO-AR-pMMTV-LUC 1G12-A5-CA is described in Schoonen et al. (J. Steroid Biochem. Molec. Biol. […]; 74: 213-222). The androgen receptor activity of compounds was determined in the presence of 0.1 µmol/l onapristone. The maximal efficacy in the presence of 100 nmol/l DHT was set as 100%. The potencies are expressed as percentage of DHT activity. Table 5 Androgen receptor activity

| Compound | ago efficacy | ago potency |
| --- | --- | --- |
| O=C(Nc1ccc2c(Sc3ccccc3[N+](=O)[O-])cn(Cc3cc(F)cc(F)c3)c2c1)C(F)F [Compound 98, N-[1-(3,5-Difluoro-benzyl)-3-(2-nitro-phenylsulfanyl)-1H-indol-6-yl]-2,2-difluoro-acetamide] | + (between 0.50 and 0.80) | ++ (>5%) |
| CCC(=O)Nc1ccc2c(Sc3ccccc3[N+](=O)[O-])cn(Cc3cc(F)cc(F)c3)c2c1 [Compound 99, N-[1-(3,5-Difluoro-benzyl)-3-(2-nitro-phenylsulfanyl)-1H-indol-6-yl]-propionamide] | + (between 0.50 and 0.80) | ± (between 0.1 % and 1%) |
| O=C(CF)Nc1ccc2c(Sc3ccccc3[N+](=O)[O-])cn(Cc3ccccn3)c2c1 [Compound 100, 2-Fluoro-N-[3-(2-nitro-phenylsulfanyl)-1-pyridin-2-ylmethyl-1H-indol-6-yl]-acetamide] | ++ (≥0.80) | + (between 1% and 5%) |
| CC(=O)Nc1ccc2c(Sc3ccccc3[N+](=O)[O-])cn(Cc3ccccn3)c2c1 [Compound 101, N-[3-(2-Nitro-phenylsulfanyl)-1-pyridin-2-ylmethyl-1H-indol-6-yl]-acetamide] | + (between 0.50 and 0.80) | + (between 1% and 5%) |
| CCC(=O)Nc1ccc2c(Sc3ccccc3[N+](=O)[O-])cn(Cc3ccccn3)c2c1 [Compound 102, N-[3-(2-Nitro-phenylsulfanyl)-1-pyridin-2-ylmethyl-1H-indol-6-yl]-propionamide] | + (between 0.50 and 0.80) | + (between 1% and 5%) |
| CC(=O)Nc1ccc2c(Sc3ccccc3[N+](=O)[O-])cn(Cc3cccnc3)c2c1 [Compound 103, N-[3-(2-Nitro-phenylsulfanyl)-1-pyridin-3-ylmethyl-1H-indol-6-yl]-acetamide] | + (between 0.50 and 0.80) | + (between 1% and 5%) |
| O=C(CF)Nc1ccc2c(Sc3ccccc3[N+](=O)[O-])cn(Cc3cccnc3)c2c1 [Compound 104, 2-Fluoro-N-[3-(2-nitro-phenylsulfanyl)-1-pyridin-3-ylmethyl-1H-indol-6-yl]-acetamide] | - (<0.20) | + (between 1% and 5%) |
| CCC(=O)Nc1ccc2c(Sc3ccccc3[N+](=O)[O-])cn(Cc3cccnc3)c2c1 [Compound 105, N-[3-(2-Nitro-phenylsulfanyl)-pyridin-3-ylmethyl-1H-indol-6-yl]-propionamide] | ± (between 0.20 and 0.50) | + (between 1% and 5%) |
| CS(=O)(=O)Nc1ccc2c(Sc3ccccc3[N+](=O)[O-])cn(Cc3cc(F)cc(F)c3)c2c1 [Compound 106, N-[1-(3,5-Difluoro-benzyl)-3-(2-nitro-phenylsulfanyl)-1H-indol-6-yl]-methanesulfonamide] | ++ (≥0.80) | + (between 1% and 5%) |
| O=[N+]([O-])c1ccccc1Sc1cn(Cc2cc(F)cc(F)c2)c2cc(NS(=O)(=O)c3ccsc3)ccc12 [Compound 107, Thiophene-3-sulfonic acid [1-(3,5-difluoro-benzyl)-3-(2-nitro-phenylsulfanyl)-1H-indol-6-yl]-amide] | ++ (≥0.80) | + (between 1% and 5%) |
| Cn1cnc(S(=O)(=O)Nc2ccc3c(Sc4ccccc4[N+](=O)[O-])cn(Cc4cc(F)cc(F)c4)c3c2)c1 [Compound 108, 1-Methyl-1H-imidazole-4-sulfonic acid [1-(3,5-difluoro-benzyl)-3-(2-nitro-phenylsulfanyl)-1H-indol-6-yl]-amide] | ++ (≥0.80) | + (between 1% and 5%) |
| CN(C)C(=O)c1ccc2c(Sc3ccccc3[N+](=O)[O-])cn(Cc3ccccn3)c2c1 [Compound 109, 3-(2-Nitro-phenylsulfanyl)-1-pyridin-2-ylmethyl-1H-indole-6-carboxylic acid dimethylamide] | ++ (≥0.80) | + (between 1% and 5%) |
| CNC(=O)c1ccc2c(Sc3ccccc3[N+](=O)[O-])cn(Cc3ccccn3)c2c1 [Compound 110, 3-(2-Nitro-phenylsulfanyl)-1-pyridin-2-ylmethyl-1H-indole-6-carboxylic acid methylamide] | + (between 0.50 and 0.80) | + (between 1% and 5%) |
| NC(=O)c1ccc2c(Sc3ccccc3[N+](=O)[O-])cn(Cc3ccccn3)c2c1 [Compound 111, 3-(2-Nitro-phenylsulfanyl)-1-pyridin-2-ylmethyl-1H-indole-6-carboxylic acid amide] | ± (between 0.20 and 0.50) | ± (between 0.1 % and 1%) |
| CNC(=O)c1ccc2c(Sc3ccccc3[N+](=O)[O-])cn(Cc3cccnc3)c2c1 [Compound 112, 3-(2-Nitro-phenylsulfanyl)-1-pyridin-3-ylmethyl-1H-indole-6-carboxylic acid methylamide] | ± (between 0.20 and 0.50) | + (between 1% and 5%) |
| CCNC(=O)c1ccc2c(Sc3ccccc3[N+](=O)[O-])cn(Cc3cccnc3)c2c1 [Compound 113, 3-(2-Nitro-phenylsulfanyl)-1-pyridin-3-ylmethyl-1H-indole-6-carboxylic acid ethylamide] | + (between 0.50 and 0.80) | + (between 1% and 5%) |
| O=C(NC1CC1)c1ccc2c(Sc3ccccc3[N+](=O)[O-])cn(Cc3cccnc3)c2c1 [Compound 114, 3-(2-Nitro-phenylsulfanyl)-1-pyridin-3-ylmethyl-1H-indole-6-carboxylic acid cyclopropylamide] | ++ (≥0.80) | + (between 1% and 5%) |
| COc1ccc2c(Sc3ccccc3[N+](=O)[O-])cn(Cc3cncnc3)c2c1 [Compound 115, 6-Methoxy-3-(2-nitro-phenylsulfanyl)-1-pyrimidin-5-ylmethyl-1H-indole] | + (between 0.50 and 0.80) | ++ (>5%) |
| COc1ccc2c(Sc3ccccc3[N+](=O)[O-])cn(Cc3ccncn3)c2c1 [Compound 116, 6-Methoxy-3-(2-nitro-phenylsulfanyl)-1-pyrimidin-4-ylmethyl-1H-indole] | + (between 0.50 and 0.80) | + (between 1% and 5%) |
| COc1ccc2c(Sc3ccccc3[N+](=O)[O-])cn(Cc3cnccn3)c2c1 [Compound 117, 6-Methoxy-3-(2-nitro-phenylsulfanyl)-1-pyrazin-2-ylmethyl-1H-indole] | + (between 0.50 and 0.80) | + (between 1% and 5%) |
| O=CNc1ccc2c(Sc3ccccc3[N+](=O)[O-])cn(Cc3cncnc3)c2c1 [Compound 118, N-[3-(2-Nitro-phenylsulfanyl)-1-pyrimidin-5-ylmethyl-1H-indol-6-yl]-formamide] | + (between 0.50 and 0.80) | ++ (>5%) |
| N#Cc1ccc2c(Sc3ccccc3[N+](=O)[O-])cn(Cc3ccccn3)c2c1 [Compound 119, 3-(2-Nitro-phenylsulfanyl)-1-pyridin-2-ylmethyl-1H-indole-6-carbonitrile] | ++ (≥0.80) | ++ (>5%) |
| Cl.N#Cc1ccc2c(Sc3ccccc3[N+](=O)[O-])cn(Cc3ccccn3)c2c1 [Compound 120, 3-(2-Nitro-phenylsulfanyl)-1-pyridin-2-ylmethyl-1H-indole-6-carbonitrile monohydrochloride] | ++ (≥0.80) | ++ (>5%) |
